Source: ChEMBL document CHEMBL4371067, “Discovery of N-substituted 7-azaindoles as Pan-PIM kinases inhibitors - Lead optimization - Part III” (Bioorg Med Chem Lett, 2019)
Values after ≈ are worked out from the molar mass of the structure shown.

Assays:
[1] = Clearance in human liver microsomes assessed as drug extraction at 5 uM; assay type: ADME, Microsome; settings: for hepatic extraction ratio at 5 µM: liver microsomes, read-out: CLH; for CLH: microsomes, 5 µM
[2] = molecular target: Serine/threonine-protein kinase pim-1 (Homo sapiens, UniProt P11309); test: Inhibition of PIM1 (unknown origin) assessed as reduction in BAD phosphorylation at Ser-112 residue by TR-FRET assay
[3] = molecular target: Serine/threonine-protein kinase PIM (Homo sapiens, UniProt P11309+Q9P1W9+Q86V86); test: Inhibition of PIM in human KG1 cells assessed as reduction in pS6 level; assay type: cell-based
[4] = Clearance in mouse liver microsomes assessed as drug extraction at 5 uM; assay type: ADME, Microsome; settings: for hepatic extraction ratio at 5 µM: liver microsomes, read-out: CLH; for CLH: microsomes, 5 µM
[5] = molecular target: Voltage-gated inwardly rectifying potassium channel KCNH2 (Homo sapiens, UniProt Q12809); test: Inhibition of human ERG
[6] = molecular target: Serine/threonine-protein kinase pim-2 (Homo sapiens, UniProt Q9P1W9); test: Inhibition of PIM2 (unknown origin) assessed as reduction in BAD phosphorylation at Ser-112 residue by TR-FRET assay
KG-1 = test: Antiproliferative activity against human KG1 cells; assay type: functional, cell-based
[7] = Permeability in human Caco2/TC7 cells at 5 uM; assay type: ADME, cell-based; settings: for Papp at 5 µM: Caco-2, read-out: permeability; for permeability: caco2/tc7, 5 µM, 5 µM
hERG (KCNH2) [8] = molecular target: T1, hERG (KCNH2) (Homo sapiens, UniProt Q12809); test: Inhibition of human ERG at 10 uM relative to control
hERG (KCNH2) [9] = molecular target: T1, hERG (KCNH2); test: Inhibition of human ERG at 1 uM relative to control
[10] = Thermodynamic solubility in pH 7.4 solution; assay type: physicochemical; settings: buffer, read-out: Therm_solubility
[11] = Efflux ratio of permeability in human Caco2/TC7 cells at 5 uM; assay type: ADME, cell-based; settings: Caco-2

SMILES	hepatic extraction ratio at 5 µM [1]	IC50 [2]	EC50 [3]	hepatic extraction ratio at 5 µM [4]	IC50 [5]	IC50 [6]	EC50 (KG-1; Homo sapiens, KG-1)	Papp at 5 µM [7]	CLH [1]	Ki [2]	CLH [4]	EC50 (KG-1; kg-1)	permeability [7]	inhibition at 10 µM (hERG (KCNH2) [8])	inhibition at 1 µM (hERG (KCNH2) [9])	solubility thermodynamic [10]	efflux ratio at 5 µM [11]
CC(C)(CC#Cc1c(Cl)c2c(Cl)cc(C(N)=O)nc2n1[C@H]1CCCNC1)C(N)=O	0.01	4.7 nM	133 nM	0.06	> 10 µM	21 nM	269 nM	0.4 ×10⁻⁶ cm/s	–	–	–	–	–	–	–	–	–
CC1(CC#Cc2c(Cl)c3c(Cl)cc(C(N)=O)nc3n2[C@H]2CCCNC2)COC1	0.12	2.4 nM	33 nM	0.35	5 µM	15.7 nM	289 nM	1.2 ×10⁻⁶ cm/s	–	–	–	–	–	–	–	–	–
NC(=O)c1cc(Cl)c2c(Cl)c(C#CC3CNCCO3)n([C@H]3CCCNC3)c2n1 (stereo in doubt; 29b)	–	1.4 nM	51 nM	–	> 20 µM	7.6 nM	–	–	0%	0.9 nM	15%	197 nM	2 ×10⁻⁷ cm/s	–	–	–	–
NC(=O)c1cc(Cl)c2c(Cl)c(C#CC3COCCO3)n([C@H]3CCCNC3)c2n1 (stereo in doubt; 22b)	–	2.3 nM	95 nM	–	–	6 nM	–	–	10%	–	4%	203 nM	9 ×10⁻⁷ cm/s	86%	20%	–	–
CC(O)CC#Cc1c(Cl)c2c(Cl)cc(C(N)=O)nc2n1[C@H]1CCCNC1 (stereo partly specified)	0.06	1 nM	32 nM	–	–	6.1 nM	48 nM	0.24 ×10⁻⁶ cm/s	–	0.6 nM	–	–	–	23%	13%	760 µM (≈ 300 µg/mL)	53
NC(=O)c1cc(Cl)c2c(Cl)c(C#CCN3CCCC3=O)n([C@H]3CCCNC3)c2n1	0.03	2 nM	93 nM	0.26	> 20 µM	6.7 nM	178 nM	0.01 ×10⁻⁶ cm/s	–	–	–	–	–	–	–	–	–
CC(C)(O)C#Cc1c(Cl)c2c(Cl)cc(C(N)=O)nc2n1[C@H]1CCCNC1	0	2.2 nM	36 nM	–	–	9.9 nM	302 nM	0.14 ×10⁻⁶ cm/s	–	–	–	–	–	47%	20%	–	–
CC(O)C#Cc1c(Cl)c2c(Cl)cc(C(N)=O)nc2n1[C@H]1CCCNC1 (stereo partly specified)	0	1.1 nM	13 nM	–	–	9.3 nM	147 nM	0.34 ×10⁻⁶ cm/s	–	0.7 nM	–	–	–	20%	9%	206 µM (≈ 78.5 µg/mL)	37
NC(=O)c1cc(Cl)c2c(Cl)c(C#CC3CCCO3)n([C@H]3CCCNC3)c2n1 (stereo in doubt; 20a)	–	4.4 nM	137 nM	–	–	21 nM	–	3.2 ×10⁻⁶ cm/s	–	–	–	223 nM	–	–	–	207 µM (≈ 84.3 µg/mL)	–
NC(=O)c1cc(Cl)c2c(Cl)c(C#CC3CNCCO3)n([C@H]3CCCNC3)c2n1 (stereo in doubt; 29a)	–	2.8 nM	283 nM	0.22	6 µM	6.1 nM	365 nM	–	6%	–	–	–	8 ×10⁻⁷ cm/s	–	–	–	–
